Measurements reported in article PMC5329011 (Frontiers in Neuroscience, 2017).
Read-outs that look alike come from different tables or passages of the source. Ends that are not written are not given here.

How the values were obtained:
[1] = biological target: T1, apelin receptor (Homo sapiens, UniProt P35414); test: Inhibition of forskolin-stimulated cAMP accumulation (DiscoverX); assay type: cell-based; conditions: 15 μmol/L forskolin, cells expressing human apelin receptor, mean ± SEM, n = replicates/experiments, read-out: pD2, inhibition of forskolin-stimulated cAMP (converted)
T1 sequence (P35414 1-380): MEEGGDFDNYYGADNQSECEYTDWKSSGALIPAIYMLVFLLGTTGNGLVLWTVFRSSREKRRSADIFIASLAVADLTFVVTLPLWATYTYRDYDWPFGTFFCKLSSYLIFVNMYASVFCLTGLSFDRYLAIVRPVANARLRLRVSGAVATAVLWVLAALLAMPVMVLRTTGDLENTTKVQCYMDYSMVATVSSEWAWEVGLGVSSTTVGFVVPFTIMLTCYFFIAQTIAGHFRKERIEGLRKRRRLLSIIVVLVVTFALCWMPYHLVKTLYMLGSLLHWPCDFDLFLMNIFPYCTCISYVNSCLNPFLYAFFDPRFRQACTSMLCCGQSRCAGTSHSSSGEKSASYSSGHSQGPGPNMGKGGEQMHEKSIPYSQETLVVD
Description: (§1) Inhibition of cAMP accumulation, β-arrestin recruitment and receptor internalization by apelin isoforms, modified and truncated apelin peptides were studied using cells expressing the human apelin receptor (DiscoverX, CA, USA) as per the manufacturer's instructions. In all assays the resulting chemiluminescent signal was measured as relative light units (RLU) using a LumiLITE™ Microplate Reader (DiscoveRx, Fremont, CA). […] Agonist responses were expressed as a % of the forskolin response. […] Data were analyzed using a 4-parameter logistic equation using GraphPad Prism 6 to determine values of potency, pD2 (−log10 EC50, where EC50 is the concentration producing half maximal response) and maximum response (EMAX). n-Values are given as number of replicates/number of experiments.

[2] = biological target: T1, apelin receptor; test: β-arrestin recruitment assay (DiscoverX); assay type: cell-based; conditions: cells expressing human apelin receptor, mean ± SEM, n = replicates/experiments, read-out: pD2, β-arrestin recruitment (converted)
Description: as §1

[3] = biological target: T1, apelin receptor; test: Receptor internalization assay (DiscoverX); assay type: cell-based
Description: as §1

[4] = biological target: T1, apelin receptor; test: β-arrestin assay without and with pre-incubation with rhACE2; assay type: cell-based
Description: as §1

[5] = biological target: T2, vascular smooth muscle apelin receptor (Homo sapiens, UniProt P35414); test: Contraction of endothelium-denuded human saphenous vein; conditions: n = 9; for Emax: % of terminal response to KCl (100 mmol/L)
T2 construct: from tissue; host or cells: endothelium-denuded human saphenous vein
T2 sequence (P35414 1-380): T1 sequence (P35414 1-380)
Description: (§2) Vascular smooth muscle apelin receptor-mediated contraction was exploited in a bioassay to compare the in vitro potency of apelin peptides. […] Agonist responses were expressed as a % of a terminal response to KCl (100 mmol/L). […] Data were expressed as % of the terminal response to CaCl2. Data from vascular and cardiac experiments were analyzed using a 4-prameter logistic curve (GraphPad Prism 6) to determine values of pD2 and EMAX.

[6] = human, in vivo
Description: Studies were performed in healthy volunteers (n = 12) in the University of Cambridge Vascular Research Unit, Addenbrooke's Hospital, Cambridge, UK. This study was carried out in accordance with the recommendations of the National Research Ethics Service Committee East of England-Cambridge Central with written informed consent from all subjects. All subjects gave written informed consent in accordance with the Declaration of Helsinki. The protocol was approved by the National Research Ethics Service Committee East of England-Cambridge Central (REC 11/EE/0305).
Exclusion criteria were ischemic heart disease, respiratory, renal or neurological disease, diabetes mellitus, hypertension, BMI > 30, BMI <18; smoker; pregnant; use of vasoactive medication or NSAIDS/aspirin within 48 h of study; current involvement in other research studies. An Omron HEM705CP oscillimetric sphygmomanometer was used to measure blood pressure and heart rate at baseline and then every 6 min in the contralateral arm. Periodically, a cuff around the upper arm was inflated for ~8 s to 40 mmHg then deflated for 4 s to interrupt venous return and during a 3 min measurement hand circulation was excluded by inflation of wrist cuffs to 200 mmHg. Changes in forearm volume were measured by mercury-in-silastic strain gauge with FBF subsequently expressed as ml/100 ml forearm volume per min. […]

[7] = biological target: T1, apelin receptor; test: Competition binding with [Glp65,Nle75,Tyr77][125I]apelin-13 in human left ventricle homogenate; set-up: from tissue; host or cells: human left ventricle homogenate
Description: Assays were performed in human heart as previously described (Brame et al., [2015]). […] Equilibrium was broken by centrifugation (20,000 g for 10 min, 4°C) and pellets washed with Tris-HCl buffer (50 mmol/L, pH 7.4, 4°C), re-centrifuged and pellets counted for detection of bound radioactivity. Competition binding data were analyzed using GraphPad Prism 6 (GraphPad Software, Inc. La Jolla, CA, USA) to obtain values of pKi (the negative log10 of the dissociation constant derived from the IC50 for the competing ligands, the radioligand concentration and radioligand affinity by the Cheng and Prusoff equation). Experiments were performed in triplicate.
Measurements are mean ± standard error of the mean (SEM). […] Cell assay pD2 values were compared by one-way ANOVA followed by Tukey's multiple comparison test.

[8] = biological target: T3, recombinant human ACE2 (Homo sapiens, UniProt Q9BYF1); test: Incubation with rhACE2, Maldi-TOF mass spectrometry; assay type: in vitro ADME; conditions: 5 nmol peptide, 5 pmol rhACE2, MES buffer pH 6.5, 2 h, 37°C, Maldi-TOF read-out
T3 construct: purchased GSK, Ware, UK
T3 sequence (Q9BYF1 18-740 limits assumed): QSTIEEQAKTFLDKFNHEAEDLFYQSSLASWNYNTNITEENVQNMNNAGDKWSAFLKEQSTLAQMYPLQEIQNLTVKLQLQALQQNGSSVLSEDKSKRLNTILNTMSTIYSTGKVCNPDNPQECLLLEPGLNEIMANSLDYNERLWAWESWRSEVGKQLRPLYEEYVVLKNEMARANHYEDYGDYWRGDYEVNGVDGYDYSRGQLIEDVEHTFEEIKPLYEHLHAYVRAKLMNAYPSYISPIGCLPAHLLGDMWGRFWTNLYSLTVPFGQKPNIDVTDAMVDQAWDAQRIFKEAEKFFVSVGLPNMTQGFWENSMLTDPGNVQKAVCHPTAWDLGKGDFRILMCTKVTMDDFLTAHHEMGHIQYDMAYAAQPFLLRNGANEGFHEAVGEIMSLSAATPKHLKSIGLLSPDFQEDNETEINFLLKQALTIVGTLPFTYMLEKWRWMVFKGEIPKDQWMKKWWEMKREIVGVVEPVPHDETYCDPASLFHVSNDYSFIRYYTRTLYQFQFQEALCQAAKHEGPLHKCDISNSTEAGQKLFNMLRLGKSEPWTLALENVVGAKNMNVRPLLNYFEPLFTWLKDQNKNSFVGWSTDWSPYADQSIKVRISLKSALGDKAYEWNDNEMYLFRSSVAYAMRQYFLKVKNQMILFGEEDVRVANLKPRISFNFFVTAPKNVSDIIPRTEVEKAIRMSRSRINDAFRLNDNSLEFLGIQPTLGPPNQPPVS
Description: The reaction mixture was analyzed by Maldi-TOF mass spectrometry after samples were desalted using Millipore μC18ZipTip (MA, USA), washed with 5% acetic acid and eluted with CHCA matrix (in 50% aqueous acetonitrile containing 0.1% trifluoroacetic acid) to a stainless steel sample slide. Samples were air dried and analyzed using a Waters Maldi MicroMX time-of-flight mass spectrometer (MA, USA). Calibration was external using polyethylene glycol. The 10 Hz-laser power was just above threshold. The spectra were the sum of 1,000 shots collected from a spiral track of the sample area. Data were processed using Waters MassLynx software (MA, USA).

[9] = cited from earlier work
Source text: Apelins are modulators of vascular tone and cardiac contractility in vitro and in vivo (Japp et al., [2008], [2010]; Maguire et al., [2009]; Barnes et al., [2013]; Brame et al., [2015]).

[10] = system: mouse paced right ventricle; test: Inotropic action in mouse paced right ventricle; conditions: mouse paced RV, n = 6 (isoprenaline n = 4)
Description: as §2

[11] = system: rhACE2; test: rhACE2 enzyme (5 pmol, GSK) in buffer (pH 6.5) containing MES (500 mmol/L), NaCl (300 mmol/L) and ZnCl2 (10 μmol/L); conditions: human, 37°C, up to 2 h
[12] = rat in vivo; conditions: cited from earlier work

## CSCC[C@H](NC(=O)[C@@H]1CCCN1C(=O)CNC(=O)[C@H](CCCCN)NC(=O)[C@H](Cc1c[nH]cn1)NC(=O)[C@H](CO)NC(=O)[C@H](CC(C)C)NC(=O)[C@H](CCCNC(=N)N)NC(=O)[C@@H]1CCCN1C(=O)[C@H](CCCNC(=N)N)NC(=O)[C@@H]1CCC(=O)N1)C(=O)N1CCC[C@H]1C(=O)O [[Pyr^1]apelin-13(1–12)]
[1]
  EC50: 0.501 nM
[2]
  EC50: 14.5 nM
[3]
  Emax: 97 ± 2%
[3]; mean ± SEM, SEM, read-out: pD2, receptor internalization (converted)
  EC50: 6.46 nM
[4]; without or with pre-incubation with rhACE2
  EMAX (% [Pyr^1]apelin-13): 98 ± 5 % [Pyr^1]apelin-13
[4]; without or with pre-incubation with rhACE2 (2 h, 37°C), mean ± SEM, SEM, read-out: Potency (pD2) (converted)
  EC50: 53.7 nM
[5]
  Emax: 24 ± 6%
[5]; endothelium-denuded human saphenous vein, mean ± SEM, SEM, read-out: pD2, contraction of saphenous vein (converted)
  EC50: 0.234 nM
[6]
  effect on heart rate or blood pressure: No significant effects
[7]; 0.1 nmol/L radioligand, 90 min, 22°C, pH 7.4, Cheng-Prusoff, mean ± SEM, n = 3, SEM
  Ki: 9.12 nM

## CSCC[C@H](NC(=O)[C@@H]1CCCN1C(=O)CNC(=O)[C@H](CCCCN)NC(=O)[C@H](Cc1cnc[nH]1)NC(=O)[C@H](CO)NC(=O)[C@H](CC(C)C)NC(=O)[C@H](CCCNC(=N)N)NC(=O)[C@@H]1CCCN1C(=O)[C@H](CCCNC(=N)N)NC(=O)[C@@H]1CCC(=O)N1)C(=O)N1CCC[C@H]1C(=O)N[C@@H](Cc1ccccc1)C(=O)O [[Pyr^1]apelin-13]
[8]
  result of incubation with rhACE2: de novo generation of [Pyr^1]apelin-13(1–12), with a weak signal representing the remaining parent peptide
[9]; humans, ref Japp et al., 2008
  half-life: less than 8 min
[9]; rat, ref Brame et al., 2015
  half-life: less than 3 min

## CSCC[C@H](NC(=O)[C@@H]1CCCN1C(=O)CNC(=O)[C@H](CCCCN)NC(=O)[C@H](Cc1c[nH]cn1)NC(=O)[C@H](CO)NC(=O)[C@H](CC(C)C)NC(=O)[C@H](CCCNC(=N)N)NC(=O)[C@@H]1CCCN1C(=O)[C@H](CCCNC(=N)N)NC(=O)[C@@H](N)CCC(N)=O)C(=O)N1CCC[C@H]1C(=O)N[C@@H](C)C(=O)O [apelin-13(F13A), reference compound]
[5]
  Emax: 23 ± 4%

## CC(C)NCC(O)c1ccc(O)c(O)c1 (stereo not shown) [isoprenaline]
[10]; mean ± SEM, SEM, read-out: pD2, increase in force of contraction (converted)
  EC50: 13.2 nM
[10]
  EMAX, increase in force of contraction: 78 ± 17 % CaCl2

## RPRLSHKGPM [apelin-13(R10M)]
[1]
  EC50: 2 nM
[2]
  EC50: 5.5 nM
[7]; single concentration 1 μM peptide
  % of specific binding competed for: 100%

## pGlu-Arg-Pro-Arg-Leu-Ser-His-Lys-Gly-Pro-Met-Pro
[11]
  not cleaved: did not produce shorter apelin fragments (2 h)

## pGlu-Arg-Pro-Arg-Leu-Ser-His-Lys-Gly-Pro-Met-Pro-Phe
[12]
  cleaved bond: Pro12-Phe13, minor
[11]
  cleaved bond: Pro12-Phe13, 2 h
